Data taken from patent publication US20160139120A1 (The Trustees of Columbia University in the City of New York, priority 2013, published 2016).

Assays:
RAGE-C1q binding = molecular target: T1, RAGE-C1q binding (Homo sapiens, UniProt P02745+P02746+P02747); experiment: ELISA-like C1q-sRAGE binding assay in presence of test substance; settings: for ability of known RAGE ligands to block C1q binding to immobilized sRAGE: data not shown; for effect on C1q binding to immobilized sRAGE (RAGE-C1q interaction): 0-2 mM compound with 2 μg/ml C1q, 2 h
T1 construct: Three forms of human sRAGE, the extracellular domain of the receptor, were utilized; made in house; host or cells: Sf9 insect cells (baculovirus)
Description: “+” and “−” in (B) and (C) indicate whether the C1q was preincubated with monoclonal antibody or not, respectively. Results in (B) and (C) were mean±SD of three independent experiments. *p<0.01 in pair comparison indicated in the graph.
The final peroxidase activity was monitored at 492 nm with o-phenylenediamine dihydrochloride and hydrogen peroxide as substrates. […] Remaining binding sites were blocked with 5% non-fat milk in PBS. […] ECL Western blot detection kit was used to visualize the binding.

U937 cells [1] = experiment: Monocyte adhesion: U937 cells to C1q-coated plate; assay type: cell-based, human; settings: 2 mM in medium, 24 h
Description: U-937 cells (2×10^5/ml) cultured in RPMI medium containing 10% fetal bovine serum, 100 units/ml of penicillin and 100 μg/ml of streptomycin were incubated with 100 nM of D3 and 2 ng/ml of TGF-β at 37° C. in a 5% CO2 incubator for 24 hours. After washing twice with serum-free RPMI medium, U-937 cells were suspended at concentration of 2×10^5/ml in serum-free RPMI medium containing 0 or 100 μg/ml of chicken anti-human RAGE IgY or 20 μg/ml of F(ab′)2 of mouse anti-human CD11b IgG1. As controls, 100 μg/ml of chicken anti-AGE IgY and 100 μg/ml of mouse IgG1 isotype control were used. […] The cells were cultured for 24 hours, then 50 μl of serum-free RPMI medium containing 15 μM of Calcein AM was added into each well to label U-937 cells with fluorescence for 1 hour. After three gentle washes with Hanks' balanced salt solution, the attached U-937 cells were photographed with regular light and fluorescent light, as shown in panel A. To quantitatively measure cell attachment, the plate was read with fluorescence plate reader with excitation at 485 nm and emission at 530 nm, as shown in panel B. The p value was calculated by student T-test with at least 4 samples for each condition. […]
(A) ARPE-19RAGE cells expressed high level of RAGE protein. Ten micrograms of total proteins from ARPE-19, ARPE-19RAGE and RAGE-transfected C6 cells (C6-RAGE) were analyzed for RAGE expression by Western blot. […]

U-937 cells = experiment: Cytotoxicity and activation/differentiation test on U-937 cells; assay type: cell-based, human
Description: Phenolphthalein bisphosphate has been used in bacteria culture media as phosphatase substrate. […] Phagocytes are major protective cells in the body by ingesting harmful foreign particles, bacteria, and dead or dying cells. In an in vivo abdominal sepsis model caused by intraperitoneally injection with Escherichia coli, RAGE was involved in defense against the growth and/or dissemination of E. coli (The Journal of Infectious Diseases 2009, 200:765-773). In the presence of RAGE, E. coli numbers were much lower in the injection site as well as in major organs of the mouse. With the help of phenolphthalein bisphosphate, we expect that RAGE's function in this sepsis model could be enhanced further.

complement system = experiment: Complement activation assay (C3a formation in human serum); assay type: biochemical
Description: Complement activation was monitored as C3a formation from proteolytic cleavage of C3 by ELISA kit.
C3a was assayed by ELISA kit.
Two different forms of each protein were tested, one was immobilized and the other was free molecule in serum (dissolved). For immobilized forms, 96-well MaxiSorp plate was coated with 50 μg/ml of each protein and blocked with BSA. Complement activation was performed as in (A).
After 1 h incubation, C3a levels in the human serum were determined as a marker of complement activation with human C3a EIA kit according to the manufacturer's instructions.

U937 cells [2] = experiment: Phagocytosis of apoptotic Jurkat cells by differentiated U937 cells (FACS); assay type: cell-based, human; settings: with addition of C1q; basal level 47%
Description: (A) Representative dot-plots of different cell populations separated by FACS after 2 h phagocytosis of apoptotic Jurkat cells: top-left U937 cells without phagocytosis; top-right phagocytic U937 cells labeled with percentage of total U937 population; bottom-right apoptotic Jurkat cells. (B) FACS analysis of phagocytosis of apoptotic Jurkat cells and effect of anti-RAGE and anti-CD11b antibodies. […] Results in (B) and (D) were mean±SD of three independent experiments. *p<0.01 in pair comparison indicated in the graph.
U937 cells (2×10^5/ml) were differentiated in standard medium containing 100 nM of vitamin D3 and 2 ng/ml of TGF-β1 at 37° C. in a 5% CO2 incubator for 2 days, with refreshment of vitamin D3 and TGF-β1 at 24 h. Differentiated U937 cells were harvested and re-suspended in Hank's Balanced Salt Solution (HESS, containing calcium and magnesium) at 2×10^6/ml, and then labeled with 5 μM of CM-DiI at 37° C. for 20 min. Labeling was ended by washing cells three times with HESS. The resulted cells were re-suspended at 4×10^5/ml in phagocytosis buffer (HESS plus 2 mM MgCl2 and 20 mM glutamate, pH 7.0).
To label Jurkat cells with CFSE (carboxyfluorescein succinimidyl ester), Jurkat cells were incubated with 1 μM of CFDA-SE in HESS for 30 min at 37° C. Harvested cells were resuspended (1×10^6/ml) in HESS containing 1 μM of staurosporine and incubated at 37° C. for 6 h. […]

[3] = system: RAGE-overexpressing cells; experiment: Steady state binding of free C1q to RAGE-overexpressing cells; assay type: cell-based, human; settings: data not shown
Description: RAGE expression was compared with another RAGE over-expressing cell line C6-RAGE, generated from rat astroglial C6 (Taguchi, 2000), with the result shown in FIG. 15A.
FIG. 10E was used (data not shown). […] The results using rat native serum with RAGE-transfected C6 cells produced similarly unremarkable results (results not shown).

Mac-1 = molecular target: T2, Mac-1 (Homo sapiens, UniProt P05107+P11215); experiment: Pull-down of sRAGE and C1q by immobilized Mac-1; assay type: binding; settings: ½ PBS
T2 construct: purchased R&D Systems 4047-AM
Description: The plate was cooled down on ice for 10 min and washed quickly three-times with cold ½ PBS. […] Stripping of Western blot membranes was performed with buffer from Pierce according to the manufacturer's instructions.

T1 sequence (P02745 23-245): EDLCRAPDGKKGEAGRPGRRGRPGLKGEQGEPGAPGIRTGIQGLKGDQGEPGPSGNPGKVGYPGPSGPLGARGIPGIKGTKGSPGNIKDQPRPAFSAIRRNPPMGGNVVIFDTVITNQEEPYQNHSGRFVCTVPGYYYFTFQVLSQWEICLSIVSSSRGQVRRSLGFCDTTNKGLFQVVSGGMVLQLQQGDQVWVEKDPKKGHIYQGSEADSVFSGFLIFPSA
T1 sequence (P02746 28-253): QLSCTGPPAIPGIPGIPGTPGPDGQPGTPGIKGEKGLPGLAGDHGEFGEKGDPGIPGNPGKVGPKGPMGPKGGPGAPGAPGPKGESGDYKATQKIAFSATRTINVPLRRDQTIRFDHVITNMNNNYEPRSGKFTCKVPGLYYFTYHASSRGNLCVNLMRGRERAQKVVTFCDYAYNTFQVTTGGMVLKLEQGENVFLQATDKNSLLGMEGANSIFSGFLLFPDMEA
T1 sequence (P02747 29-245): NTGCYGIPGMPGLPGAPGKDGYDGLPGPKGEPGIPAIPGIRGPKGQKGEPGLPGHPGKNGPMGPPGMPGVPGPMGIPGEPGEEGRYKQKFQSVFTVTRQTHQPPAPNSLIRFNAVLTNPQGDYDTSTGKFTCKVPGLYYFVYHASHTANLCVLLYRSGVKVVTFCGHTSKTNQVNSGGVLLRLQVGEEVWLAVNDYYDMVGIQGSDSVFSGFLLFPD
T2 sequence (P05107 23-700 limits assumed, other chains not shown): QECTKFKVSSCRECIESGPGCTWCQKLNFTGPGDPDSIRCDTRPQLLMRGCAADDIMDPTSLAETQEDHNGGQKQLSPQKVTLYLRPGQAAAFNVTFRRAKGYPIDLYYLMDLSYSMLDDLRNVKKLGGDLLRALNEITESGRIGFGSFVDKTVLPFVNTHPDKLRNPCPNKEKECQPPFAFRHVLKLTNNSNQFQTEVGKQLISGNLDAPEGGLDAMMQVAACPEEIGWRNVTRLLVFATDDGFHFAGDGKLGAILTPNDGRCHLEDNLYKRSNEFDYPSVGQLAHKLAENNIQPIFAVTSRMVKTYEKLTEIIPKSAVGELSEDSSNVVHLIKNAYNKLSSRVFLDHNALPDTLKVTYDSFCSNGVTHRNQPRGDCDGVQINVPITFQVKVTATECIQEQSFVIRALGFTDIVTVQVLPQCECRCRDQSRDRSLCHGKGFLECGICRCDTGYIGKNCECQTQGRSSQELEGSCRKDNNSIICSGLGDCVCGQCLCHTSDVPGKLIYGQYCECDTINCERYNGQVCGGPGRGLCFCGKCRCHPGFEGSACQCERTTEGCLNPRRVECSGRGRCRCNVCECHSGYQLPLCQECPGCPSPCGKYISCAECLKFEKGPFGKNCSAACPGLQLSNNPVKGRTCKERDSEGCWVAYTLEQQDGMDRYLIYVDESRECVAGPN

51003: known RAGE ligand; S100B obtained from Calbiochem [compound 51003]
ability of known RAGE ligands to block C1q binding to immobilized sRAGE (RAGE-C1q binding): unable to block C1q binding to immobilized sRAGE

O=C1OC(c2ccc(OP(=O)([O-])[O-])cc2)(c2ccc(OP(=O)([O-])[O-])cc2)c2ccccc21.[Na+].[Na+].[Na+].[Na+] [phenolphthalein bisphosphate, Phenolphthalein bisphosphate tetrasodium salt]
effect of compound on U-937 cells adhesion to C1q-coated plate (U937 cells [1]): significantly increase the adherent U-937 cells
effect of compound on U-937 cells adhesion to C1q-coated plate (U937 cells [1]; listed as Phenolphthalein bisphosphate): Phenolphthalein bisphosphate increased monocytes
activation or differentiation of U-937 cells (U-937 cells): couldn't activate or differentiate U-937 cells
cytotoxicity (U-937 cells; 2 mM): no cytotoxicity
effect on C1q binding to immobilized sRAGE (RAGE-C1q interaction) (RAGE-C1q binding): Phenolphthalein bisphosphate enhanced RAGE-C1q
effect on C1q binding to immobilized sRAGE (RAGE-C1q interaction) (RAGE-C1q binding; listed as Phenolphthalein Biphosphate): enhance RAGE-C1q interaction with dose-dependent manor
effect on complement activation of sRAGE (complement system; 1 mM compound, 2 μg sRAGE in 20 μl fresh human serum): without enhancement on complement activation

AGE-BSA: glycated bovine serum albumin
ability of known RAGE ligands to block C1q binding to immobilized sRAGE (RAGE-C1q binding): unable to block C1q binding to immobilized sRAGE

Avastin: a humanized IgG1 antibody for VEGF
complement activation (C3a) activity relative to sRAGE (complement system; at every coating concentration): about 8 times

C1q: human C1q protein (Quidel); first subcomponent of the C1 complex of the classical complement pathway
phagocytic U937 cells population, of total U937 cells (U937 cells [2]): 66%
binding of free C1q to cells [3]: did not bind
pull-down by immobilized Mac-1, proteins incubated separately (Mac-1): pulled down
pull-down by immobilized Mac-1, sRAGE and C1q co-incubated (Mac-1): increased

Mac-1: recombinant form of human Mac-1 (CD11b/CD18), R&D Systems 4047-AM
complement activation in liquid phase (complement system; protein(s) preincubated in PBS then added to fresh human serum (FIG. 13B)): could not activate the complement system

amyloid β protein fragment 1-42 [A-beta]
ability of known RAGE ligands to block C1q binding to immobilized sRAGE (RAGE-C1q binding): unable to block C1q binding to immobilized sRAGE
